In patent publication US20250049867A1, “[…] HERPESVIRUSES” (VIROGIN BIOTECH CANADA LTD., priority 2021, published 2025):
Values after ≈ are worked out from the molar mass of the structure shown.

Tests used:
[1] = system: GL261 cells modified to express mNectin1; assay: Orthotopic mNectin1-expressing GL261 glioblastoma model, intratumoral virus injection, survival; type: in vivo, mice; conditions: co-expressed with the mIL12 and anti-PD1 payload; GL261-luc-N1
Experimental: In vivo experiments were conducted to test the efficacy of the HSV oncolytic virus encoding different payload molecules against glioblastoma. Two orthotopic mouse models were used. One orthotopic model used CT2A cells modified to express FLuc which enables imaging post-implantation. The other orthotopic model used GL261 cells modified to express mNectin1, which enabled HSV infection, and also to express FLuc which enabled imaging post-implantation. Cells were implanted intracranially in 12-week-old C57B16 mice by stereotactic injection, and one week later the tumors were injected with the indicated viruses.
The control virus contained only the BAC sequences but not the payload sequence. In the first set of experiments, viruses encoding mouse IL-12 (mIL-12) and/or anti-PD-1 antibody and the control virus were each injected intratumorally at the indicated time and dosage according to FIG. 22A and FIG. 22B.
For the combination screens, GL261-luc-N1 cells were intracranially implanted in 12-week-old C57B16 mice, then 1 week later the tumors were injected with the combination of viruses encoding various candidate payloads.
GL261-luc-N1 or CT2A-luc-N1 cells were intracranially implanted in 12-week-old C57B16 mice, then 1 week later the tumors were injected with the indicated viruses.

[2] = system: ONCR-1010; assay: Acyclovir sensitivity plaque titer assay on Vero cell monolayers; type: cell-based, HSV; conditions: 96 h, 90% reduction in plaque titer, 4 days
Experimental: (§1) Acyclovir can be used as a prodrug in HSV-TK mediated suicide gene therapy of cancer, which requires its phosphorylation by HSV thymidine kinase (TK). Virus sensitivity to acyclovir was assayed by adding increasing concentrations of the drug to intact Vero cell monolayers and then infecting with a standard dose of virus. The Vero cell monolayers were incubated for 4 days to allow for virus growth, and then the virus was harvested and the corresponding lysates assayed for virus by plaque assay. The IC90 was calculated as the amount of acyclovir that produced a 90% reduction in plaque titer compared to the untreated control.

[3] = system: ONCR-1010 with UL30-L774F mutation (ONCR-1012); assay: as above; type: cell-based, HSV; conditions: 96 h, 90% reduction in plaque titer, 4 days
Experimental: as §1

[4] = dosed orally; cited from earlier work

Row | Molecule | efficacy in combination screen (survival) [1] | IC90 [2] [µg/mL] | IC90 [3] [µg/mL] | bioavailability of acyclovir in the CNS [4]
1 | 15-hydroxyprostaglandin dehydrogenase [PGDH, 15-hydroxyprostaglandin dehydrogenase [NAD(+)]] | improved efficacy | – | – | –
2 | Nc1nc2c(ncn2COCCO)c(=O)[nH]1 [acyclovir] | – | 0.43 (≈ 1.91 µM) | 1.84 (≈ 8.17 µM) | about 1.76 ug/ml
